Measured values published in patent US4277479A, “Tetrazolylalkoxycarbostyril derivatives and pharmaceutical compositions containing them” (Otsuka Pharmaceutical Co., Ltd., priority 1978, dated 1981).

How the values were obtained:
[1] = tested on: rabbit platelet (collagen-induced aggregation); experiment: Platelet aggregation inhibitory effect, collagen-induced aggregation in rabbit platelet; assay type: cell-based; conditions: Oryctolagus cuniculus, read-out: Inhibition effect on collagen-induced aggregation in rabbit platelet; for inhibition at 100 µM: concentration of the test compound solution 10^-4 mole; for inhibition at 10 µM: concentration of the test compound solution 10^-5 mole; for inhibition at 1 µM: concentration of the test compound solution 10^-6 mole
Source text: (§1) The blood sample used for the test is a 1/9 (by volume) mixture of sodium citrate and whole blood collected from rabbit. Said sample is subjected to 10-minute centrifugal separation at 1,000 r.p.m. to obtain a platelet rich plasma (PRP). The thus obtained PRP is separated, and the remaining blood sample is further subjected to 15-minute centrifugal separation at 3,000 r.p.m. to obtain a platelet poor plasma (PPP).
(§2) The number of platelets in the PRP is counted by the Brecher-Clonkite Method, and the PRP is diluted with the PPP to prepare a PRP sample with platelet concentration of 300,000/mm^3 for the adenosine diphosphate (ADP)-induced aggregation test. There is also prepared a PRP sample with platelet concentration of 450,000/mm^3 for the collagen-induced aggregation test.
(§3) 0.6 Ml of said PRP sample is added into 0.01 ml of a solution of a test compound of a predetermined concentration and the mixture is placed in a 37° C. thermostat for one minute. Then 0.07 ml of an ADP or collagen solution is added to the mixture. Transmittance of this mixture is determined and the change of transmittance is recorded by using the aggregometer at stirrer speed of 1,100 r.p.m. […] ADP is adjusted to a concentration of 7.5×10^-5 M, and the collagen solution is prepared by triturating 100 mg of collagen with 5 ml of said buffer and the supernatant is used as collagen inducer. Adenosine and acetylsalicylic acid are used as controls for the ADP-induced aggregation test and the collagen-induced aggregation test, respectively. The platelet aggregation inhibitory effect is measured in terms of percent inhibition with respect to the aggregation rate of the controls. The aggregation rate is calculated from the following formula: [formula] wherein a: transmittance of PRP
(§4) b: transmittance of PRP containing a test compound and an aggregation inducer
(§5) The compounds tested are as follows.

[2] = tested on: rabbit platelet (ADP-induced aggregation); experiment: Platelet aggregation inhibitory effect, ADP-induced aggregation in rabbit platelet; assay type: cell-based; conditions: Oryctolagus cuniculus; for inhibition at 100 µM: concentration of the test compound solution 10^-4 mole; for inhibition at 100 µM / inhibition at 10 µM: read-out: Inhibition effect on ADP-induced aggregation in rabbit platelet; for inhibition at 10 µM: concentration of the test compound solution 10^-5 mole; for inhibition at 1 µM: concentration of the test compound solution 10^-6 mole
Source text: as §1, §2, §3, §4, §5

[3] = tested on: cerebral blood flow, bastard dog; experiment: Increasing effect of cerebral blood flow in anesthetized dog; assay type: in vivo; conditions: Canis lupus familiaris, iv, through profunda femoris vein, dog; for change in vivo at 0.3 mg/kg: dosage 300 μg/kg
Method: (Test of increasing effect of cerebral blood flow)
Thus, a bastard dog (male, 12-20 kg of body weight) was fixed in a prone (position) and was anesthetized with […] of pentobarbital sodium and forced to breathe at a frequency of respiration of 20 times/minute. Then, the skull was bared and the surface bone was removed to expose the venous sinus by using a grinder and the venous blood was taken out from the venas which was cannulizated. The amount of venous blood flow was measured by using an electromagnetic blood flow meter and next measured by using drop-counter to measure the number of drops of blood per 10 seconds.
The increasing effect of cerebral blood flow was calculated by comparing the number of blood drops in 30 seconds at the peak of increasement shown before and after the administration of compound to be tested. Each of the compounds to be tested was dissolved in dimethylformamide and diluted with physiological saline solution and administered through a cannule being inserted into the profunda femoris vein.

[4] = tested on: Gold blatt type renoprival hypertension rats (RHR); experiment: Hypo-tensive effect, Gold blatt type renoprival hypertension rats (RHR), tail-cuff method; assay type: in vivo, rat; conditions: 30 mg/kg oral, mean ± standard deviation
Method: (§6) Hypo-tensive effect of the compounds was measured by determining the maximum blood pressure of the test animals according to a procedure of Tail-cuff method.
(§7) The following types of test animals were used:
(1) Gold blatt type renoprival hypertension rats (RHR)
Wistar strain male rats having 160-180 g of body weight were anesthetized with ether and the left-side renal artery was plugged with a silver clip having 0.2 mm inside diameter, while the right-side renal artery was kept as it was without operation. Four (4) weeks after the operation, rats having the maximum blood pressure over 150 mmHg were selected and used as test animals after having been denied food overnight.
(§8) Each of compounds to be tested was administered orally and the blood pressure of the rats was measured before the administration and 1, 2, 4, 6 and 8 hours after the administration. The blood pressure was measured by using Recorder (Rectihoriz type 8S, San-ei Instrument) and Electrosthygmomanometer PE-300 (Macro Bio-systems, Houston, Tex.).

[5] = tested on: Deoxycorticosteroneacetate (DOCA)/saline hypertension rats (DHR); experiment: Hypo-tensive effect, Deoxycorticosteroneacetate (DOCA)/saline hypertension rats (DHR), tail-cuff method; assay type: in vivo, rat; conditions: 30 mg/kg oral, mean ± standard deviation
Method: as §6, §7
(2) Deoxycorticosteroneacetate (DOCA)/saline hypertension rats (DHR)
Wistar strain male rats having 150-170 g of body weight were anesthetized with ether and the left-side kidney was enucleated. One(1) week after the operation, 10 mg/kg of DOCA was injected subcutaneously once a week and 1% NaCl aqueous solution was given as drinking water. Five(5) weeks after the operation, rats having the maximum blood pressure over 150 mmHg were selected and used as test animals after having been denied food overnight.
as §8

| SMILES | inhibition at 100 µM [1] [%] | inhibition at 10 µM [1] [%] | inhibition at 1 µM [1] [%] | inhibition at 100 µM [2] [%] | inhibition at 10 µM [2] [%] | inhibition at 1 µM [2] [%] | change in vivo at 0.03 mg/kg ([3]; dosage 30 μg/kg) [%] | change in vivo at 0.3 mg/kg [3] [%] | Maximum blood pressure, difference after the administration ([4]; 1 hour) [mmHg] | Maximum blood pressure, difference after the administration ([4]; 2 hours) [mmHg] | Maximum blood pressure, difference after the administration ([4]; 4 hours) [mmHg] | Maximum blood pressure, difference after the administration ([4]; 6 hours) [mmHg] | Maximum blood pressure, difference after the administration ([4]; 8 hours) [mmHg] | Maximum blood pressure, difference after the administration ([5]; 1 hour) [mmHg] | Maximum blood pressure, difference after the administration ([5]; 2 hours) [mmHg] | Maximum blood pressure, difference after the administration ([5]; 4 hours) [mmHg] | Maximum blood pressure, difference after the administration ([5]; 6 hours) [mmHg] | Maximum blood pressure, difference after the administration ([5]; 8 hours) [mmHg] |
| --- | --- | --- | --- | --- | --- | --- | --- | --- | --- | --- | --- | --- | --- | --- | --- | --- | --- | --- |
| O=c1ccc2cc(OCCCc3nnnn3C3CCCCC3)ccc2[nH]1 [Compound 1, 6-[3-(1-Cyclohexyltetrazol-5-yl)propoxy]carbostyril] | 100 | 100 | 25.9 | 100 | 63.4 | 32.7 | 36.9 | 72.2 | -3.3 ± 5.2 | -9.9 ± 6.7 | -36.7 ± 9.7 | -33.4 ± 8.6 | -31.3 ± 8.8 | -10.1 ± 3.7 | -10.0 ± 3.7 | -17.4 ± 5.2 | -25.4 ± 10.5 | -34.6 ± 13.5 |
| O=c1ccc2cc(OCCCc3nnnn3CC3CCCCC3)ccc2[nH]1 [Compound 5, 6-[3-(1-Cyclohexylmethyltetrazol-5-yl)propoxy]carbostyril] | 100 | 100 | 24.7 | 100 | 64.1 | 34.2 | – | 71 | -30.2 ± 8.2 | -21.2 ± 5.7 | -21.7 ± 7.5 | -24.7 ± 10.4 | – | -10.7 ± 10.6 | -15.2 ± 11.2 | -12.5 ± 15.3 | -18.1 ± 9.6 | – |
| O=c1ccc2cc(OCCCc3nnnn3C3CCCCCCC3)ccc2[nH]1 [Compound 6, 6-[3-(1-Cyclooctyltetrazol-5-yl)propoxy]carbostyril] | 100 | 100 | 27.4 | 100 | 75.5 | 30.5 | – | 75.3 | -8.5 ± 4.3 | -10.7 ± 7.6 | -40.8 ± 9.9 | -35.4 ± 9.5 | -28.4 ± 7.7 | -9.2 ± 4.8 | -12.0 ± 5.6 | -18.5 ± 6.1 | -30.3 ± 10.8 | -26.8 ± 10.6 |
| O=c1ccc2cc(OCCCCc3nnnn3C3CCCCC3)ccc2[nH]1 [Compound 7, 6-[4-(1-Cyclohexyltetrazol-5-yl)butoxy]carbostyril] | 100 | 100 | 26.8 | 100 | 59.9 | 28.7 | – | 68.4 | -9.5 ± 10.4 | -12.6 ± 8.9 | -34.9 ± 19.8 | -30.4 ± 8.6 | -19.7 ± 8.4 | -8.4 ± 10.3 | -11.5 ± 8.5 | -14.8 ± 7.7 | -20.2 ± 14.0 | -21.3 ± 19.1 |
